Experiments:
Format in all cases: cell-based, human
BLM melanoma cells [1] = assay: Flow cytometric analysis of caspase-3/7 activity; conditions: 1C 20 μmol/L, 24, 48 and 72 h
Protocol: (§1) The A2058 and BLM melanoma cells were seeded 1 × 10^6 in Petri dishes with complete growth medium and cultivated for 24 h. After cell cultivation, the A2058 cells were treated with chalcone 1C at 10 μmol/L concentration, BLM cells at 20 μmol/L concentration and both melanoma cell lines were treated with DMSO as the negative control at the same concentrations for 24, 48 and 72 h. Adherent and floating cells were harvested, pelleted by centrifugation at 1200 rpm for 5 min. Pellets were resuspended in washing buffer (PBS) and divided for a particular analysis. Afterwards, cells were prepared according to assay kit protocols or fixed with cold 4% paraformaldehyde (15 min) and permeabilized with 90% methanol (10 min on ice) with washing steps (PBS) and stained prior to analysis (Table 5) for 15 min in the dark at room temperature. Fluorescence was detected using a BD FACSCalibur^TM Flow Cytometer (Becton Dickinson, San Jose, CA, USA).

A2058 melanoma cells [2] = assay: Flow cytometric analysis of caspase-3/7 activity; conditions: A2058, 1C 10 μmol/L, 24, 48 and 72 h
Protocol: as §1

BLM melanoma cells [3] = assay: Cell cycle analysis by flow cytometry (PI); conditions: 1C 20 μmol/L
Protocol: (§2) The A2058 and BLM melanoma cells were seeded at a density of 1 × 10^5/dish in a Petri dish. Twenty-four hours after incubation, A2058 cells were treated with chalcone 1C at 10 μmol/L concentration, BLM cells at 20 μmol/L concentration and both melanoma cell lines were treated with DMSO as the negative control at the same concentrations. For flow cytometric analysis of the cell cycle, adherent and floating A2058 and BLM melanoma cells were harvested in three different times (24, 48 and 72 h) after treatment with chalcone 1C and DMSO, washed in cold washing buffer (PBS), fixed in cold 70% ethanol and stored at −20 °C at least overnight. Prior to analysis, cells were washed with PBS, resuspended in staining solution (Triton X-100 final concentration 0.1%, ribonuclease A final concentration 0.5 mg/mL and propidium iodide final concentration 0.025 mg/mL, all Sigma), and incubated for 30 min in the dark at room temperature. Stained melanoma cells were analysed using a BD FACSCalibur^TM Flow Cytometer (Becton Dickinson, San Jose, CA, USA). Three independent analyses were performed.

A2058 melanoma cells [4] = assay: Cell cycle analysis by flow cytometry (PI); conditions: A2058, 1C 10 μmol/L
Protocol: as §2

BLM melanoma cells [5] = assay: Apoptosis detection, Annexin V/PI staining; conditions: 1C 20 μmol/L
From the text: (§3) Phosphatidylserine (PS) is an anionic phospholipid located on the cytoplasmic surface of the plasma membrane in cells with intact membranes. The externalization of PS from the inner to outer surface of the lipid bilayer of plasma membrane is a typical marker of apoptosis in the early stages. Annexin V/PI double staining is a method for dividing cells into populations of living (An^−/PI^− Q3), early apoptotic (An^+/PI^− Q4), late apoptotic/necrotic (An^+/PI^+ Q2) and dead (An^−/PI^+ Q1). […] Furthermore, the concomitant decrease of living cells and the increased number of dead cells were also observed in a time-dependent pattern (Table 4, Figure 4).
(§4) To perform apoptosis detection, A2058 and BLM melanoma cells were seeded in Petri dishes at a density of 1 × 10^5/dish and treated with chalcone 1C and DMSO as the negative control at the same concentrations for 24, 48 and 72 h. In the next step, adherent and floating melanoma cells were harvested, centrifuged and pellets were resuspended in washing buffer (PBS). Resuspended melanoma cells were stained with Annexin V-Alexa Fluor® 647 antibody (Thermo Scientific, Rockford, IL, USA) in binding buffer for 20 min in the dark at room temperature. Finally, melanoma cells were washed, stained with 1 μL of propidium iodide (final concentration 25 μg/mL) for 5 min and analysed using a BD FACSCalibur^TM Flow Cytometer (Becton Dickinson, San Jose, CA, USA). Three independent analyses were performed.

A2058 melanoma cells [6] = assay: Apoptosis detection, Annexin V/PI staining; conditions: A2058, 1C 10 μmol/L
From the text: as §3, §4

BLM = assay: BrdU cell proliferation assay
Protocol: (§5) The BrdU Cell Proliferation Assay is based on the detection of BrdU (5-bromo-2′-deoxyuridine) incorporated into the newly synthesized DNA during the replication process in proliferating cells.
(§6) The A2058 (5 × 10^3/well) and BLM (5 × 10^3/well) melanoma cells were plated in a 96-well culture plate in 80 μL suitable medium. Twenty-four hours after cell seeding, different concentrations of the chalcone 1C were added ranging from 5–20 μmol/L. After 48 h of treatment, BrdU labelling solution was added to melanoma cells and incubated for another 24 h at 37 °C followed by fixation and incubation with anti-BrdU peroxidase conjugate solution for an additional 90 min in the dark at room temperature. Cells were then washed 3× with washing solution and incubated with TMB (tetramethylbenzidine) substrate solution (all Roche, Basel, Switzerland) for 5 to 30 min according to colour intensity. Finally, the stop solution (25 μL 1 M H2SO4) was added, and the incorporated BrdU was detected with an automated Cytation™ 3 Cell Imaging Multi-Mode Reader (Biotek, Winooski, VT, USA) at 450 nm. Three independent analyses were performed.

A2058 = assay: BrdU cell proliferation assay
Protocol: as §5, §6

`COc1cccc(OC)c1C(=O)/C=C/c1c2ccccc2nc2ccccc12` [Compound 1C, (2E)-3-(acridin-9-yl)-1-(2,6-dimethoxyphenyl)prop-2-en-1-one] was tested, and the “Caspase-3/7 activity in apoptotic cells” value (BLM melanoma cells [1]) was “significant activity”, the “Caspase-3/7 activity in apoptotic cells” value (A2058 melanoma cells [2]) was “significant activity” and the G1 (BLM melanoma cells [3]; 24 h) was 19.35 ± 1.43. It also gave a G2/M (BLM melanoma cells [3]; 24 h) of 63.25 ± 0.45, an S (BLM melanoma cells [3]; 24 h) of 9.19 ± 0.28 and a subG0 (BLM melanoma cells [3]; 24 h) of 8.22 ± 1.62. It also gave a G1 (BLM melanoma cells [3]; 48 h) of 11.65 ± 0.69, a G2/M (BLM melanoma cells [3]; 48 h) of 54.95 ± 0.45 and an S (BLM melanoma cells [3]; 48 h) of 16.35 ± 0.20. It also gave a subG0 (BLM melanoma cells [3]; 48 h) of 17.05 ± 0.45, a G1 (BLM melanoma cells [3]; 72 h) of 13.85 ± 1.18 and a G2/M (BLM melanoma cells [3]; 72 h) of 29.25 ± 0.04. For the same compound, the S (BLM melanoma cells [3]; 72 h) was 32.60 ± 2.69, the subG0 (BLM melanoma cells [3]; 72 h) was 24.30 ± 3.84 and the G1 (A2058 melanoma cells [4]; 24 h) was 34.67 ± 4.92. For the same compound, the G2/M (A2058 melanoma cells [4]; 24 h) was 52.23 ± 7.03, the S (A2058 melanoma cells [4]; 24 h) was 11.79 ± 1.51 and the subG0 (A2058 melanoma cells [4]; 24 h) was 1.30 ± 1.11. The G1 (A2058 melanoma cells [4]; 48 h) was 24.60 ± 11.45, the G2/M (A2058 melanoma cells [4]; 48 h) was 59.73 ± 12.23 and the S (A2058 melanoma cells [4]; 48 h) was 8.12 ± 1.15. It also gave a subG0 (A2058 melanoma cells [4]; 48 h) of 7.54 ± 3.73, a G1 (A2058 melanoma cells [4]; 72 h) of 18.67 ± 8.56 and a G2/M (A2058 melanoma cells [4]; 72 h) of 60.37 ± 4.42. The S (A2058 melanoma cells [4]; 72 h) was 8.85 ± 2.70, the subG0 (A2058 melanoma cells [4]; 72 h) was 12.12 ± 5.84 and the “Dead An−/PI+” value (BLM melanoma cells [5]; 24 h) was 6.25 ± 0.20. The “Early Apo An+/PI−” value (BLM melanoma cells [5]; 24 h) was 12.96 ± 0.77, the “Late Apo An+/PI+” value (BLM melanoma cells [5]; 24 h) was 6.90 ± 0.09 and the “Live An−/PI−” value (BLM melanoma cells [5]; 24 h) was 73.90 ± 0.49. For the same compound, the “Dead An−/PI+” value (BLM melanoma cells [5]; 48 h) was 5.81 ± 0.86, the “Early Apo An+/PI−” value (BLM melanoma cells [5]; 48 h) was 20.25 ± 1.27 and the “Late Apo An+/PI+” value (BLM melanoma cells [5]; 48 h) was 12.40 ± 0.49. For the same compound, the “Live An−/PI−” value (BLM melanoma cells [5]; 48 h) was 61.50 ± 2.61, the “Dead An−/PI+” value (BLM melanoma cells [5]; 72 h) was 5.90 ± 1.47 and the “Early Apo An+/PI−” value (BLM melanoma cells [5]; 72 h) was 25.95 ± 3.80. For the same compound, the “Late Apo An+/PI+” value (BLM melanoma cells [5]; 72 h) was 28.55 ± 3.23, the “Live An−/PI−” value (BLM melanoma cells [5]; 72 h) was 39.60 ± 0.90 and the “Dead An−/PI+” value (A2058 melanoma cells [6]; 24 h) was 3.41 ± 0.46. The “Early Apo An+/PI−” value (A2058 melanoma cells [6]; 24 h) was 7.53 ± 1.17, the “Late Apo An+/PI+” value (A2058 melanoma cells [6]; 24 h) was 4.22 ± 0.47 and the “Live An−/PI−” value (A2058 melanoma cells [6]; 24 h) was 84.80 ± 0.24. For the same compound, the “Dead An−/PI+” value (A2058 melanoma cells [6]; 48 h) was 5.94 ± 0.52, the “Early Apo An+/PI−” value (A2058 melanoma cells [6]; 48 h) was 11.52 ± 0.42 and the “Late Apo An+/PI+” value (A2058 melanoma cells [6]; 48 h) was 13.85 ± 2.57. For the same compound, the “Live An−/PI−” value (A2058 melanoma cells [6]; 48 h) was 68.70 ± 1.63, the “Dead An−/PI+” value (A2058 melanoma cells [6]; 72 h) was 11.65 ± 1.43 and the “Early Apo An+/PI−” value (A2058 melanoma cells [6]; 72 h) was 13.30 ± 1.71. The “Late Apo An+/PI+” value (A2058 melanoma cells [6]; 72 h) was 23.05 ± 4.94, the “Live An−/PI−” value (A2058 melanoma cells [6]; 72 h) was 52.00 ± 5.23 and the IC50 (BLM; Homo sapiens, BLM, 72 h incubation) was 16.51 ± 0.01 µM. For the same compound, the “Selectivity index, BLM (BrdU)” value (BLM; MCF-10A vs BLM, calculated on the basis of BrdU results) was 1.99, the IC50 (A2058; Homo sapiens, A2058, 72 h incubation) was 8.4 ± 0.05 µM and the “Selectivity index, A2058 (BrdU)” value (A2058; MCF-10A vs A2058, calculated on the basis of BrdU results) was 3.9.

Source: article PMC9603750, “Chalcone-Acridine Hybrid Suppresses Melanoma Cell Progression via G2/M Cell Cycle Arrest, DNA Damage, Apoptosis, and Modulation of MAP Kinases Activity” (International Journal of Molecular Sciences, 2022)
